Experimental data: patent publication EP1035837B1, “LIPID COMPOSITIONS AND THEIR USE” (PHARES PHARMACEUTICAL RESEARCH N.V., priority 1997, dated 1999)

Columns and labels:
[1] = % encapsulation of drug into liposomes from pro-liposome gels (filtration through 200 nm filters, HPLC); type: physicochemical; details: Example 3 gel (90% PC, Tris base); average particle size of 1-5µ
Description: The % encapsulation of the antifungal drugs miconazole and clotrimazole was determined by filtration of the liposome dispersion and by HPLC analysis of the unfiltered and filtered solutions for drug content. The principle behind the filtration technique is that the liposomes (with encapsulated antifungal). can be passed through 200 nm filters, while unencapsulated drug particles remain too large to pass through the filters. Pro-liposome gels were prepared, containing 2.5% and 1% miconazole and 1% and 0.5% clotrimazole. […] The % encapsulation of drug would be expected to decrease if crystallisation occurred in the gels with time.
Using the method of Example 1, pro-liposome gels were made with various concentrations of amphotericin B. The % encapsulation of the amphotericin B into liposomes (in 0.1% suspensions of the gel formulations) was measured at 3 days, 1 month, 3 months and 6 months after pro-liposome preparation. The gels were stored at 4°C ;in sealed containers, protected from light (Table 4). […]

[2] = Pro-liposome gel formulation work: effect of ethanol and drug concentration on drug solubility, gel formation and gel appearance on storage; type: physicochemical
Description: Approximately 10% of the total lipid and all the ethanol were weighed into an amber glass jar and mixed until all the lipid had dispersed. The antifungal drug was added to the lipid/ethanol mixture and further mixing was carried out to break up the drug particles. The remainder of the lipid was added and mixing was continued until all the lipid had been dispersed. The glycerol was then added and stirring was continued until a homogenous gel was obtained. It was clear and translucent with a sweet pleasant taste and could be applied directly to the mucosa. From about 1% to 10% or more, but preferably about 2% to 5% of a hydrophilic polymer or natural gum can be dispersed in powder form to render the preparation muco-adhesive. Compositions utilising lipid blends or lecithins which contain 45% PC, form liposomes on conversion with water. The drug is associated with the liposomes at very high levels, ie greater than 90%.
The preparation of the pro-liposome miconazole and clotrimazole gel was as described above. Early formulation work was carried out to find: • i) A gel formulation with enough ethanol to dissolve the miconazole and clotrimazole giving the gel a translucent appearance, but with […] as to obtain an optimum viscosity profile (Table 1). • ii) A gel formulation with not too much miconazole or clotrimazole to induce crystallisation of the drug in the gel (Table 2).
At this level of ethanol, miconazole drug crystallisation was not seen in 1% and 2.5% miconazole gals.

[3] = cited from earlier work
[4] = Table 1, ethanol 5 %, 45% PC lipid 20 %, drug 1 %, glycerol 74 %
[5] = Table 2, ethanol 5 %, 45%PC 20 %, drug 1 %, glycerol 74 %
[6] = Table 2, ethanol 5 %, 45%PC 20 %, glycerol 72.5 %, drug 2.5 % (clotrimazole line prints 1)
[7] = ethanol 2.5 %, 45% PC lipid 20 %, drug 1 %, glycerol 76.5 %
[8] = ethanol 10 %, 45% PC lipid 20 %, drug 1 %, glycerol 69 %
[9] = ethanol 15 %, 45% PC lipid 20 %, drug 1 %, glycerol 64 %

| Compound | encapsulation into liposomes formed from the pro-liposome by addition of water [1] [%] | Initial Comments: drug solubility in ethanol + 10% of lipid [2, 4] | Initial Comments: drug solubility in ethanol + 10% of lipid [2, 5] | Initial Comments: drug solubility in ethanol + 10% of lipid [2, 6] | Initial Comments: drug solubility in ethanol + 10% of lipid [2, 7] | Initial Comments: drug solubility in ethanol + 10% of lipid [2, 8] | Initial Comments: drug solubility in ethanol + 10% of lipid [2, 9] | solubility in ethanol [3] | solubility in water [3] |
| --- | --- | --- | --- | --- | --- | --- | --- | --- | --- |
| C[C@@H]1[C@H](O)[C@@H](C)/C=C/C=C/C=C/C=C/C=C/C=C/C=C/[C@H](O[C@@H]2O[C@H](C)[C@@H](O)[C@H](N)[C@@H]2O)C[C@@H]2O[C@](O)(C[C@@H](O)C[C@@H](O)[C@H](O)CC[C@@H](O)C[C@@H](O)CC(=O)O[C@H]1C)C[C@H](O)[C@H]2C(=O)O [Amphotericin B, amphotericin B] | ~100 |  |  |  |  |  |  |  |  |
| Clc1ccccc1C(c1ccccc1)(c1ccccc1)n1ccnc1 [Clotrimazole, 1-(o-chloro-a,a-diphenylbenzyl)imidazole] |  | Clotrimazole soluble in ethanol + 10% of lipid. Clear, golden gel formed with good viscosity | Clotrimazole soluble in ethanol + 10% of lipid. Clear, golden gel formed with good viscosity | Clotrimazole soluble in ethanol + 10% of lipid. Clear, golden gel formed with good viscosity | Clotrimazole insoluble in ethanol + 10% of lipid. Not enough ethanol to disperse all the lipid and form a gel | Clotrimazole soluble in ethanol + 10% of lipid. Clear, golden gel formed with runny viscosity | Clotrimazole soluble in ethanol + 10% of lipid. Clear, golden gel formed with very runny viscosity | soluble | insoluble |
| Clc1ccc(COC(Cn2ccnc2)c2ccc(Cl)cc2Cl)c(Cl)c1 (stereo not drawn) [Miconazole, 1-[2-dichloro-β-[2,4-dichlorobenzyl)oxyphenethyl]imidazole mononitrate] |  | Miconazole soluble in ethanol + 10% of lipid. Clear, golden gel formed with good viscosity | Miconazole soluble in ethanol + 10% of lipid. Clear, golden gel formed with good viscosity | Miconazole soluble in ethanol + 10% of lipid. Clear, golden gel formed with good viscosity | Miconazole soluble in ethanol + 10% of lipid. Not enough ethanol to disperse all the lipid and form a gel | Miconazole soluble in ethanol + 10% of lipid. Clear, golden gel formed with runny viscosity | Miconazole soluble in ethanol + 10% of lipid. Clear, golden gel formed with very runny viscosity | very soluble | very slightly soluble |
